Columns and labels:
Test in all cases: KINOMEscan binding
CAMK2D = target: T1, CAMK2D (Homo sapiens, UniProt Q13557); conditions: read-out: Percent Control
T1 construct: purchased Eurofins DiscoverX KINOMEscan

MARK1 = target: T2, MARK1 (Homo sapiens, UniProt Q9P0L2); conditions: read-out: Percent Control
T2 construct: purchased Eurofins DiscoverX KINOMEscan

FLT3(D835V) = target: T3, FLT3(D835V) (Homo sapiens, UniProt P36888, D835V); conditions: read-out: Percent Control
T3 construct: purchased Eurofins DiscoverX KINOMEscan

ULK1 = target: T4, ULK1 (Homo sapiens, UniProt O75385); conditions: read-out: Percent Control
T4 construct: purchased Eurofins DiscoverX KINOMEscan

CLK3 = target: T5, CLK3 (Homo sapiens, UniProt P49761); conditions: read-out: Percent Control
T5 construct: purchased Eurofins DiscoverX KINOMEscan

PRKCQ = target: T6, PRKCQ (Homo sapiens, UniProt Q04759); conditions: read-out: Percent Control
T6 construct: purchased Eurofins DiscoverX KINOMEscan

PIK3C2B = target: T7, PIK3C2B (Homo sapiens, UniProt O00750); conditions: read-out: Percent Control
T7 construct: purchased Eurofins DiscoverX KINOMEscan

DAPK3 = target: T8, DAPK3 (Homo sapiens, UniProt O43293); conditions: read-out: Percent Control
T8 construct: purchased Eurofins DiscoverX KINOMEscan
T8 sequence (O43293 whole entry): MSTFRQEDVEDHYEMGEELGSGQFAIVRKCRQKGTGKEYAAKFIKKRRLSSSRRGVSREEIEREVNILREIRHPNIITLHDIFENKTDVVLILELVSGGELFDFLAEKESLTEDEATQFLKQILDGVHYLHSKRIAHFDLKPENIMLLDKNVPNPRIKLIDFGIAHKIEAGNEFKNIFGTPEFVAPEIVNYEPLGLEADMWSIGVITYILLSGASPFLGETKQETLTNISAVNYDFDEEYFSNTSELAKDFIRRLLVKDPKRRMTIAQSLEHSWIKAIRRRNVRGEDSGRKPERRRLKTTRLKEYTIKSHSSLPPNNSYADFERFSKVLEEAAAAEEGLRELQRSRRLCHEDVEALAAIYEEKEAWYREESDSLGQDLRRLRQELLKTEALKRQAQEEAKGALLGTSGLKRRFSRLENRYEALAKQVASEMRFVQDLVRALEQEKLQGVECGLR

ALK(L1196M) = target: T9, ALK(L1196M) (Homo sapiens, UniProt Q9UM73, L1196M); conditions: read-out: Percent Control
T9 construct: purchased Eurofins DiscoverX KINOMEscan

HASPIN = target: T10, HASPIN (Homo sapiens, UniProt Q8TF76); conditions: read-out: Percent Control
T10 construct: purchased Eurofins DiscoverX KINOMEscan

TRKA = target: T11, TRKA (Homo sapiens, UniProt P04629); conditions: read-out: Percent Control
T11 construct: purchased Eurofins DiscoverX KINOMEscan

[1] = target: T12, ABL1(M351T)-phosphorylated (Homo sapiens, UniProt P00519, M351T); conditions: read-out: Percent Control
T12 construct: purchased Eurofins DiscoverX KINOMEscan

KIT(A829P) = target: T13, KIT(A829P) (Homo sapiens, UniProt P10721, A829P); conditions: read-out: Percent Control
T13 construct: purchased Eurofins DiscoverX KINOMEscan

FLT3(ITD,D835V) = test system: FLT3(ITD,D835V); set-up: species or system human; conditions: 10 μM
TSSK1B = target: T14, TSSK1B (Homo sapiens, UniProt Q9BXA7); conditions: read-out: Percent Control
T14 construct: purchased Eurofins DiscoverX KINOMEscan
T14 sequence (Q9BXA7 whole entry): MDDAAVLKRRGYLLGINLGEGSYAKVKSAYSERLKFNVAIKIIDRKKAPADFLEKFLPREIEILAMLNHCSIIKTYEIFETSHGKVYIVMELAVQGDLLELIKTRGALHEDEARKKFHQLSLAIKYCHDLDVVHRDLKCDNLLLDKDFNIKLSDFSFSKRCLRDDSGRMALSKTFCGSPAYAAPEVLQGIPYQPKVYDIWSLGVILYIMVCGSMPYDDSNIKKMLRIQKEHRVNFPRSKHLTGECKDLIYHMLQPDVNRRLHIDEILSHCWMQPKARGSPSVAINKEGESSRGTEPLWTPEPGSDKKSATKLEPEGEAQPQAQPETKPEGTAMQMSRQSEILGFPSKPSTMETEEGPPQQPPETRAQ

MAK = target: T15, MAK (Homo sapiens, UniProt P20794); conditions: read-out: Percent Control
T15 construct: purchased Eurofins DiscoverX KINOMEscan
T15 sequence (P20794 whole entry): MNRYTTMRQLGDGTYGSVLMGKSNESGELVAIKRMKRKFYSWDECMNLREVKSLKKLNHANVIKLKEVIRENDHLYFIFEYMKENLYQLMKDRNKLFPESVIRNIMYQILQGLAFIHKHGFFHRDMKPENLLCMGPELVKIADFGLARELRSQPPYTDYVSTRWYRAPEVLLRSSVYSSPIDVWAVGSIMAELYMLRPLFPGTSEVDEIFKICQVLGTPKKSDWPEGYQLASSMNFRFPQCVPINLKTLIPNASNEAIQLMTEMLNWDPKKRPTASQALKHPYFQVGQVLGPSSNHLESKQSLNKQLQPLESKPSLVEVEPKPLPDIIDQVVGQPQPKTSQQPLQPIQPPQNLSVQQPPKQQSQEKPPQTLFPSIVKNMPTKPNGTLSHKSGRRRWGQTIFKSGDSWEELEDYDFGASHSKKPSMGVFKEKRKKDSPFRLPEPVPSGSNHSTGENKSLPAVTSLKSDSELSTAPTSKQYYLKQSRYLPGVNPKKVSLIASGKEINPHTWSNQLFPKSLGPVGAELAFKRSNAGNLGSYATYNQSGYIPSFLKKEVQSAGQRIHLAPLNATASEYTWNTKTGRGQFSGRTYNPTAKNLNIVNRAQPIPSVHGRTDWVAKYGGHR

PIK4CB = target: T16, PIK4CB (Homo sapiens, UniProt Q9UBF8); conditions: read-out: Percent Control
T16 construct: purchased Eurofins DiscoverX KINOMEscan

TLK2 = target: T17, TLK2 (Homo sapiens, UniProt Q86UE8); conditions: read-out: Percent Control
T17 construct: purchased Eurofins DiscoverX KINOMEscan

PRKD2 = target: T18, PRKD2 (Homo sapiens, UniProt Q9BZL6); conditions: read-out: Percent Control
T18 construct: purchased Eurofins DiscoverX KINOMEscan

PIK3CA(H1047Y) = target: T19, PIK3CA(H1047Y) (Homo sapiens, UniProt P42336, H1047Y); conditions: read-out: Percent Control
T19 construct: purchased Eurofins DiscoverX KINOMEscan

YES = target: T20, YES (Homo sapiens, UniProt P07947); conditions: read-out: Percent Control
T20 construct: purchased Eurofins DiscoverX KINOMEscan

BRAF = target: T21, BRAF (Homo sapiens, UniProt P15056); conditions: read-out: Percent Control
T21 construct: purchased Eurofins DiscoverX KINOMEscan

CDC2L2 = target: T22, CDC2L2 (Homo sapiens, UniProt Q9UQ88); conditions: read-out: Percent Control
T22 construct: purchased Eurofins DiscoverX KINOMEscan
T22 sequence (Q9UQ88 whole entry): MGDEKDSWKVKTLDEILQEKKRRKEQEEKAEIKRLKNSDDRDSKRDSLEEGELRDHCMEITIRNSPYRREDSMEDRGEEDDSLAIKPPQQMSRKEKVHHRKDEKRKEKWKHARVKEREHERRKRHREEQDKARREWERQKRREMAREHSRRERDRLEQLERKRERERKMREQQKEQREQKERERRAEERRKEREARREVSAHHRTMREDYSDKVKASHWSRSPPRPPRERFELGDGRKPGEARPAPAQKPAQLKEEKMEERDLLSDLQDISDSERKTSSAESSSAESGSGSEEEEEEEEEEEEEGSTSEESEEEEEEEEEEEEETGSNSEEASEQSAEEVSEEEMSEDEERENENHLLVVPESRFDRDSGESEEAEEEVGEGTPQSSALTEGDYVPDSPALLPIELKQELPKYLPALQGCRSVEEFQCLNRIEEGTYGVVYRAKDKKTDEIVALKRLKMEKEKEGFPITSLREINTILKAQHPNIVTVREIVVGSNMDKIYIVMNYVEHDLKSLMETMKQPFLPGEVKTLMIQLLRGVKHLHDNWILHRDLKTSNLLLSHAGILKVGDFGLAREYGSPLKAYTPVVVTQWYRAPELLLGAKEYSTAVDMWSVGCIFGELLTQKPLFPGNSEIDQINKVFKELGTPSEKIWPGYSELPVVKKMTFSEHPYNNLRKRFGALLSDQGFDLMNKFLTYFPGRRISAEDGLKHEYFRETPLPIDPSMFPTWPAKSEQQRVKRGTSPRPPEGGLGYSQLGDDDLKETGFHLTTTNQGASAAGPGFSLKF

[2] = target: T23, RSK4(Kin.Dom.1-N-terminal) (Homo sapiens, UniProt Q9UK32); conditions: read-out: Percent Control
T23 construct: RSK4(Kin.Dom.1-N-terminal); purchased Eurofins DiscoverX KINOMEscan
T23 sequence (Q9UK32 1-400 limits assumed): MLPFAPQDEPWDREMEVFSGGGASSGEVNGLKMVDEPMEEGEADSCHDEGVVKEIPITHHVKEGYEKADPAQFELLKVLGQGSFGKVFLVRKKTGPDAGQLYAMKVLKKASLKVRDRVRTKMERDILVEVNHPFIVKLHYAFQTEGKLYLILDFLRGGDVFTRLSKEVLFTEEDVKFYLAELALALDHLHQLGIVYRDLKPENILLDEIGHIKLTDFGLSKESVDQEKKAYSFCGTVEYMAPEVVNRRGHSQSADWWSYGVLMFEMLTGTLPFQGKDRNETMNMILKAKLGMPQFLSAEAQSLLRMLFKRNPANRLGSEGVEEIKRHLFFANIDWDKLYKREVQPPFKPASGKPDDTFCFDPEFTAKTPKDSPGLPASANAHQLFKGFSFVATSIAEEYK

CLK4 = target: T24, CLK4 (Homo sapiens, UniProt Q9HAZ1); conditions: read-out: Percent Control
T24 construct: purchased Eurofins DiscoverX KINOMEscan

MAP3K15 = target: T25, MAP3K15 (Homo sapiens, UniProt Q6ZN16); conditions: read-out: Percent Control
T25 construct: purchased Eurofins DiscoverX KINOMEscan

DRAK1 = target: T26, DRAK1 (Homo sapiens, UniProt Q9UEE5); conditions: read-out: Percent Control
T26 construct: purchased Eurofins DiscoverX KINOMEscan
T26 sequence (Q9UEE5 whole entry): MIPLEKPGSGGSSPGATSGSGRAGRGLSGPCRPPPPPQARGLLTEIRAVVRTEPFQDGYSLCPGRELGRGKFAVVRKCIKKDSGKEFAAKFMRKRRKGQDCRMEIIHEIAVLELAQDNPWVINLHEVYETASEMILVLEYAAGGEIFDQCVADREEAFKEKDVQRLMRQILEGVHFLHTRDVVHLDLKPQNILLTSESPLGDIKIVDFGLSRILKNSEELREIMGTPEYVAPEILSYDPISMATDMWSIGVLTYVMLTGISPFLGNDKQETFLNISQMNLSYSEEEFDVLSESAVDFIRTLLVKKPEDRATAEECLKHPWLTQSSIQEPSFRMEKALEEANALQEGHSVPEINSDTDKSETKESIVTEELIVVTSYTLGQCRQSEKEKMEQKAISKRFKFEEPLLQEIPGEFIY

[3] = target: T27, ABL1(F317L)-phosphorylated (Homo sapiens, UniProt P00519, F317L); conditions: read-out: Percent Control
T27 construct: purchased Eurofins DiscoverX KINOMEscan

PIK3CA(I800L) = target: T28, PIK3CA(I800L) (Homo sapiens, UniProt P42336, I800L); conditions: read-out: Percent Control
T28 construct: purchased Eurofins DiscoverX KINOMEscan

STK35 = target: T29, STK35 (Homo sapiens, UniProt Q8TDR2); conditions: read-out: Percent Control
T29 construct: purchased Eurofins DiscoverX KINOMEscan

SRC = target: T30, SRC (Homo sapiens, UniProt P12931); conditions: read-out: Percent Control
T30 construct: purchased Eurofins DiscoverX KINOMEscan
T30 sequence (P12931 whole entry): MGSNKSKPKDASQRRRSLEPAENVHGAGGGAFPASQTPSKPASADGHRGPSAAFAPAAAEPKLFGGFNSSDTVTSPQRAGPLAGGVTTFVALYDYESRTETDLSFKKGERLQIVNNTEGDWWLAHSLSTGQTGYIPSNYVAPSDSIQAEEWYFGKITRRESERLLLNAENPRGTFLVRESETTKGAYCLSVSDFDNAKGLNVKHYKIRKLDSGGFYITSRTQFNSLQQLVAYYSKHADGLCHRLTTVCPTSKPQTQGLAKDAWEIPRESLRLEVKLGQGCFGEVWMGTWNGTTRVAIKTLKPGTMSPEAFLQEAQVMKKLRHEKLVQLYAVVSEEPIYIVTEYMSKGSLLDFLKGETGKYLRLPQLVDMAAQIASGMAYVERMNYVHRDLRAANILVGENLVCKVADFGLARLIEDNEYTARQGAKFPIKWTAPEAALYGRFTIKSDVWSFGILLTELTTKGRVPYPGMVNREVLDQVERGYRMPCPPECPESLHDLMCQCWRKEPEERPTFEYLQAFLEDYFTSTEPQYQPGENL

S6K1 = target: T31, S6K1 (Homo sapiens, UniProt P23443); conditions: read-out: Percent Control
T31 construct: purchased Eurofins DiscoverX KINOMEscan

LATS1 = target: T32, LATS1 (Homo sapiens, UniProt O95835); conditions: read-out: Percent Control
T32 construct: purchased Eurofins DiscoverX KINOMEscan

AURKA = target: T33, AURKA (Homo sapiens, UniProt O14965); conditions: read-out: Percent Control
T33 construct: purchased Eurofins DiscoverX KINOMEscan
T33 sequence (O14965 whole entry): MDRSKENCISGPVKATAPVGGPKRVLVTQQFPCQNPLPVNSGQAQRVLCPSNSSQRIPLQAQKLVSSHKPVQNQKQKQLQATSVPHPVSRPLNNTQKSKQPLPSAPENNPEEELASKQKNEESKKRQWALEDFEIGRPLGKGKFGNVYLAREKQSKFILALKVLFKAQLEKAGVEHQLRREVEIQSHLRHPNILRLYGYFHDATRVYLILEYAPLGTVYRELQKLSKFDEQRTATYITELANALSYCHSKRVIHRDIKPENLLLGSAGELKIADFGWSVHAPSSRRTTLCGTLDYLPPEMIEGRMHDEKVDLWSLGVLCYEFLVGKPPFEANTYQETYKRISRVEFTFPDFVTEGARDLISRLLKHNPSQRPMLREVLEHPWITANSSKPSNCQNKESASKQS

PFCDPK1(P.falciparum) = target: T34, PFCDPK1(P.falciparum) (Plasmodium falciparum, UniProt P62344); conditions: read-out: Percent Control
T34 construct: purchased Eurofins DiscoverX KINOMEscan

TNK1 = target: T35, TNK1 (Homo sapiens, UniProt Q13470); conditions: read-out: Percent Control
T35 construct: purchased Eurofins DiscoverX KINOMEscan

FER = target: T36, FER (Homo sapiens, UniProt P16591); conditions: read-out: Percent Control
T36 construct: purchased Eurofins DiscoverX KINOMEscan

FLT4 = target: T37, FLT4 (Homo sapiens, UniProt P35916); conditions: read-out: Percent Control
T37 construct: purchased Eurofins DiscoverX KINOMEscan

YSK4 = target: T38, YSK4 (Homo sapiens, UniProt Q56UN5); conditions: read-out: Percent Control
T38 construct: purchased Eurofins DiscoverX KINOMEscan

TESK1 = target: T39, TESK1 (Homo sapiens, UniProt Q15569); conditions: read-out: Percent Control
T39 construct: purchased Eurofins DiscoverX KINOMEscan

[4] = target: T40, RPS6KA4(Kin.Dom.2-C-terminal) (Homo sapiens, UniProt O75676); conditions: read-out: Percent Control
T40 construct: RPS6KA4(Kin.Dom.2-C-terminal); purchased Eurofins DiscoverX KINOMEscan
T40 sequence (O75676 372-772 limits assumed): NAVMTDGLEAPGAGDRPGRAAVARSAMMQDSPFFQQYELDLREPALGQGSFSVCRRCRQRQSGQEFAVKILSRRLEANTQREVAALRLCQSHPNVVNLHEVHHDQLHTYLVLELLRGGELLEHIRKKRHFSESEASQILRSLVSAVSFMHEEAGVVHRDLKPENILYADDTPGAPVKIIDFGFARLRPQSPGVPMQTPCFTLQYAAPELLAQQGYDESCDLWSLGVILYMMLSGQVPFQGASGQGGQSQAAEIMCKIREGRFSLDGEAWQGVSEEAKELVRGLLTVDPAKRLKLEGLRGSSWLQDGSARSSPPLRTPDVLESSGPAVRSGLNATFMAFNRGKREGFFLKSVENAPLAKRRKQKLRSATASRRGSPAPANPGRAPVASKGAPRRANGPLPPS

CSNK1G2 = target: T41, CSNK1G2 (Homo sapiens, UniProt P78368); conditions: read-out: Percent Control
T41 construct: purchased Eurofins DiscoverX KINOMEscan

T1 sequence (Q13557 whole entry): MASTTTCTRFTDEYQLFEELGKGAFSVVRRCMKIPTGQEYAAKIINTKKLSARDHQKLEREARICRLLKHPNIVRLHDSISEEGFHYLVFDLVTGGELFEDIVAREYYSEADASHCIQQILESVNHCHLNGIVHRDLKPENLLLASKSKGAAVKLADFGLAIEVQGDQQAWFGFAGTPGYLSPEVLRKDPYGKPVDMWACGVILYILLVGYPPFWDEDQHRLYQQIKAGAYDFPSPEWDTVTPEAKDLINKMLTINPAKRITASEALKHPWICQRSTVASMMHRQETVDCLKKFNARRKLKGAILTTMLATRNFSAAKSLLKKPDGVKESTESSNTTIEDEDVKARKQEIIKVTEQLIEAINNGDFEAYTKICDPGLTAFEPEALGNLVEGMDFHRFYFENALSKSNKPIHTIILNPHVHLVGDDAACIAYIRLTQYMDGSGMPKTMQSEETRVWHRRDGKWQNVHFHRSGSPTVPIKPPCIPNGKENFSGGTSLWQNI

CC(C)NC(=O)COc1cccc(-c2nc(Nc3ccc4[nH]ncc4c3)c3ccccc3n2)c1 [KD025, 2-(3-(4-((1H-indazol-5-yl)amino)quinazolin-2-yl)phenoxy)-N-isopropylacetamide]
remaining binding at 10 µM (CAMK2D): 71% | remaining binding at 10 µM (MARK1): 100% | remaining binding at 10 µM (FLT3(D835V)): 23% | remaining binding at 10 µM (ULK1): 100% | remaining binding at 10 µM (CLK3): 68% | remaining binding at 10 µM (PRKCQ): 41% | remaining binding at 10 µM (PIK3C2B): 67% | remaining binding at 10 µM (DAPK3): 35% | remaining binding at 10 µM (ALK(L1196M)): 95% | remaining binding at 10 µM (HASPIN): 77% | remaining binding at 10 µM (TRKA): 61% | remaining binding at 10 µM [1]: 90% | remaining binding at 10 µM (KIT(A829P)): 53% | Percent Control (FLT3(ITD,D835V)): 28% | remaining binding at 10 µM (TSSK1B): 76% | remaining binding at 10 µM (MAK): 84% | remaining binding at 10 µM (PIK4CB): 92% | remaining binding at 10 µM (TLK2): 100% | remaining binding at 10 µM (PRKD2): 100% | remaining binding at 10 µM (PIK3CA(H1047Y)): 87% | remaining binding at 10 µM (YES): 71% | remaining binding at 10 µM (BRAF): 85% | remaining binding at 10 µM (CDC2L2): 80% | remaining binding at 10 µM [2]: 93% | remaining binding at 10 µM (CLK4): 77% | remaining binding at 10 µM (MAP3K15): 82% | remaining binding at 10 µM (DRAK1): 39% | remaining binding at 10 µM [3]: 98% | remaining binding at 10 µM (PIK3CA(I800L)): 100% | remaining binding at 10 µM (STK35): 84% | remaining binding at 10 µM (SRC): 87% | remaining binding at 10 µM (S6K1): 74% | remaining binding at 10 µM (LATS1): 48% | remaining binding at 10 µM (AURKA): 75% | remaining binding at 10 µM (PFCDPK1(P.falciparum)): 66% | remaining binding at 10 µM (TNK1): 88% | remaining binding at 10 µM (FER): 75% | remaining binding at 10 µM (FLT4): 86% | remaining binding at 10 µM (YSK4): 66% | remaining binding at 10 µM (TESK1): 73% | remaining binding at 10 µM [4]: 91% | remaining binding at 10 µM (CSNK1G2): 60%

Reference: paper PMC8401933 (Molecules, 2021)
